Data reported in PubChem BioAssay AID2060498 (Molecular Pharmacology Branch, DTP, NCI, 2025).

System: 171881-019-R-J1-PDC tumor spheroids, viability
Experiment: Anticancer human tumor 171881-019-R-J1-PDC patient-derived invasive breast carcinoma cell line growth inhibition [GQUAD]
Conditions: spheroids with HUVEC and MSC; for IC50: curve of first compound; for viability, T/C: stronger effect = lower value
In short: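 Viability of tumor cells grown as complex spheroids with endothelial and stromal cells, exposed to drug combinations. Top concentration at or near clinical Cmax (else 10 microM), diluted in half-log increments.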

[1] = second compound 0.0316 µM, first compound 0.0316 µM
[2] = second compound 0.0316 µM, first compound 0.1 µM
[3] = second compound 0.0316 µM, first compound 0.316 µM
[4] = second compound 0.0316 µM, first compound 1 µM
[5] = second compound 0.0316 µM, first compound 3.16 µM
[6] = second compound 0.0316 µM, first compound 10 µM
[7] = second compound 0.1 µM, first compound 0.0316 µM
[8] = second compound 0.1 µM, first compound 0.1 µM
[9] = second compound 0.1 µM, first compound 0.316 µM
[10] = second compound 0.1 µM, first compound 1 µM
[11] = second compound 0.1 µM, first compound 3.16 µM
[12] = second compound 0.1 µM, first compound 10 µM
[13] = second compound 0.316 µM, first compound 0.0316 µM
[14] = second compound 0.316 µM, first compound 0.1 µM
[15] = second compound 0.316 µM, first compound 0.316 µM
[16] = second compound 0.316 µM, first compound 1 µM
[17] = second compound 0.316 µM, first compound 3.16 µM
[18] = second compound 0.316 µM, first compound 10 µM
[19] = second compound 1 µM, first compound 0.0316 µM
[20] = second compound 1 µM, first compound 0.1 µM
[21] = second compound 1 µM, first compound 0.316 µM
[22] = second compound 1 µM, first compound 1 µM
[23] = second compound 1 µM, first compound 3.16 µM
[24] = second compound 1 µM, first compound 10 µM
[25] = second compound 3.16 µM, first compound 0.0316 µM
[26] = second compound 3.16 µM, first compound 0.1 µM
[27] = second compound 3.16 µM, first compound 0.316 µM
[28] = second compound 3.16 µM, first compound 1 µM
[29] = second compound 3.16 µM, first compound 3.16 µM
[30] = second compound 3.16 µM, first compound 10 µM
[31] = second compound 10 µM, first compound 0.0316 µM
[32] = second compound 10 µM, first compound 0.1 µM
[33] = second compound 10 µM, first compound 0.316 µM
[34] = second compound 10 µM, first compound 1 µM
[35] = second compound 10 µM, first compound 3.16 µM
[36] = second compound 10 µM, first compound 10 µM
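Wherever viability, T/C is given: 100% = DMSO vehicle control viability.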

## COc1cccc2c1C(=O)c1c(O)c3c(c(O)c1C2=O)CC(O)(C(=O)CO)CC3OC1CC(N)C(O)C(C)O1 (stereo unspecified) + CN(C)c1ccc(Nc2c3ccc(NC(=O)CCN4CCCC4)cc3nc3cc(NC(=O)CCN4CCCC4)ccc23)cc1
Second compound 0.0316 µM
  IC50: 261 nM
Second compound 0.1 µM
  IC50: 263 nM
Second compound 0.316 µM
  IC50: 229 nM
Second compound 1 µM
  IC50: < 31.6 nM
Second compound 3.16 µM
  IC50: < 31.6 nM
Second compound 10 µM
  IC50: < 31.6 nM
[1]
  viability, T/C: 93.9%
[2]
  viability, T/C: 66.6%
[3]
  viability, T/C: 51.4%
[4]
  viability, T/C: 19.9%
[5]
  viability, T/C: 0.2%
[6]
  viability, T/C: 0.24%
[7]
  viability, T/C: 109%
[8]
  viability, T/C: 68.2%
[9]
  viability, T/C: 54.4%
[10]
  viability, T/C: 20.2%
[11]
  viability, T/C: 0.28%
[12]
  viability, T/C: 0.36%
[13]
  viability, T/C: 70.2%
[14]
  viability, T/C: 55.2%
[15]
  viability, T/C: 47.6%
[16]
  viability, T/C: 10.7%
[17]
  viability, T/C: 0.27%
[18]
  viability, T/C: 0.33%
[19]
  viability, T/C: 11.5%
[20]
  viability, T/C: 11.2%
[21]
  viability, T/C: 7.77%
[22]
  viability, T/C: 2.02%
[23]
  viability, T/C: 0.44%
[24]
  viability, T/C: 0.64%
[25]
  viability, T/C: 1.52%
[26]
  viability, T/C: 2.29%
[27]
  viability, T/C: 1.63%
[28]
  viability, T/C: 0.4%
[29]
  viability, T/C: 0.14%
[30]
  viability, T/C: 0.51%
[31]
  viability, T/C: 0.38%
[32]
  viability, T/C: 0.25%
[33]
  viability, T/C: 0.32%
[34]
  viability, T/C: 0.18%
[35]
  viability, T/C: 0.29%
[36]
  viability, T/C: 0.26%

## Nc1ccn(C2OC(CO)C(O)C2(F)F)c(=O)n1 (stereo unspecified) + CN(C)c1ccc(Nc2c3ccc(NC(=O)CCN4CCCC4)cc3nc3cc(NC(=O)CCN4CCCC4)ccc23)cc1
Second compound 0.0316 µM
  IC50: < 31.6 nM
Second compound 0.1 µM
  IC50: < 31.6 nM
Second compound 0.316 µM
  IC50: < 31.6 nM
Second compound 1 µM
  IC50: < 31.6 nM
Second compound 3.16 µM
  IC50: < 31.6 nM
Second compound 10 µM
  IC50: < 31.6 nM
[1]
  viability, T/C: 35.4%
[2]
  viability, T/C: 35.6%
[3]
  viability, T/C: 44.6%
[4]
  viability, T/C: 51%
[5]
  viability, T/C: 45.9%
[6]
  viability, T/C: 47.7%
[7]
  viability, T/C: 33.7%
[8]
  viability, T/C: 38%
[9]
  viability, T/C: 46.6%
[10]
  viability, T/C: 53%
[11]
  viability, T/C: 45.6%
[12]
  viability, T/C: 46%
[13]
  viability, T/C: 33%
[14]
  viability, T/C: 36%
[15]
  viability, T/C: 39.9%
[16]
  viability, T/C: 38.5%
[17]
  viability, T/C: 47.2%
[18]
  viability, T/C: 38.4%
[19]
  viability, T/C: 12.5%
[20]
  viability, T/C: 8.63%
[21]
  viability, T/C: 13.7%
[22]
  viability, T/C: 11.8%
[23]
  viability, T/C: 15%
[24]
  viability, T/C: 16.6%
[25]
  viability, T/C: 2.29%
[26]
  viability, T/C: 1.62%
[27]
  viability, T/C: 2.47%
[28]
  viability, T/C: 1.2%
[29]
  viability, T/C: 2.41%
[30]
  viability, T/C: 2.49%
[31]
  viability, T/C: 0.27%
[32]
  viability, T/C: 0.9%
[33]
  viability, T/C: 0.82%
[34]
  viability, T/C: 0.47%
[35]
  viability, T/C: 1.36%
[36]
  viability, T/C: 0.37%

## O=c1[nH]cc(F)c(=O)[nH]1 + CN(C)c1ccc(Nc2c3ccc(NC(=O)CCN4CCCC4)cc3nc3cc(NC(=O)CCN4CCCC4)ccc23)cc1
Second compound 0.0316 µM
  IC50: > 10000 nM
Second compound 0.1 µM
  IC50: > 10000 nM
Second compound 0.316 µM
  IC50: 9940 nM
Second compound 1 µM
  IC50: < 31.6 nM
Second compound 3.16 µM
  IC50: < 31.6 nM
Second compound 10 µM
  IC50: < 31.6 nM
[1]
  viability, T/C: 84%
[2]
  viability, T/C: 79.3%
[3]
  viability, T/C: 75.2%
[4]
  viability, T/C: 69.5%
[5]
  viability, T/C: 62.9%
[6]
  viability, T/C: 63.9%
[7]
  viability, T/C: 79.7%
[8]
  viability, T/C: 72.9%
[9]
  viability, T/C: 73.4%
[10]
  viability, T/C: 69.1%
[11]
  viability, T/C: 65.7%
[12]
  viability, T/C: 61.6%
[13]
  viability, T/C: 70.5%
[14]
  viability, T/C: 69.4%
[15]
  viability, T/C: 69.5%
[16]
  viability, T/C: 55.4%
[17]
  viability, T/C: 58%
[18]
  viability, T/C: 49.9%
[19]
  viability, T/C: 14.9%
[20]
  viability, T/C: 11.1%
[21]
  viability, T/C: 17%
[22]
  viability, T/C: 12.6%
[23]
  viability, T/C: 13.4%
[24]
  viability, T/C: 15.8%
[25]
  viability, T/C: 2.15%
[26]
  viability, T/C: 1.36%
[27]
  viability, T/C: 2.04%
[28]
  viability, T/C: 2.2%
[29]
  viability, T/C: 2.62%
[30]
  viability, T/C: 2.05%
[31]
  viability, T/C: 0.33%
[32]
  viability, T/C: 0.41%
[33]
  viability, T/C: 0.8%
[34]
  viability, T/C: 0.38%
[35]
  viability, T/C: 0.5%
[36]
  viability, T/C: 0.29%
